Key:
[1] = system: neurogenic inflammation evoked by capsaicin; assay: Capsaicin-evoked neurogenic inflammation in newborn rats (Example I/2); format: in vivo, Sprague Dawley rats
Method: Neurogenic inflammation was evoked in newborn ([…]) Sprague Dawley rats by intraperitoneal administration of capsaicin (50 mg/kg of body mass) as described in the literature (Acta Physiol. Hung. 1987; 69(3-4):323-32). Twenty-four hours before capsaicin injection 10 ml intravenous infusions each of CoQ10, or omega 3+vitamin E, or omega 3+vitamin E+CoQ10 were applied. Each of these combinations contained 1.0 g omega 3, 10 mg vitamin E and 10 mg CoQ10. […] Hypotensive shock and subsequent death were prevented by pre-treatment with omega 3+vitamin E in 26% and in the omega 3+vitamin E+CoQ10 in 64%, while in the control group only 22% survived. […] Six weeks after the capsaicin injection, corneal transparency and sensitivity returned to normal in the pre-treated groups, while in the control group reduced transparency and sensitivity were observed.

TNF-alpha = assay: LPS-evoked immunogenic inflammation, TNF-alpha levels in monocyte/macrophage culture (Example I/1); format: cell-based; conditions: RAW 264,7 culture, control 0%
Method: The purpose of this experimental model was to measure inhibitory influence of omega 3 fatty acids, vitamin E and CoQ10 separately and in combination, using methods disclosed in literature (J. Surg Res. 2002 September; 107(1):135-139). For evoking inflammation bacterial endotoxin (LPS) was used and changes in levels of a proinflammatory cytokin, TNF-alpha were measured in a monocyte/macrophage (RAW 264,7) culture. It is clear that both combinations show inhibition of inflammation, the 3 member combination a considerably higher one.

[2] = system: retinal pigment epithelial (RPE) cells; assay: Retinal cell culture, growth and differentiation of RPE cells (Example I/6); format: cell-based, Wistar rats; conditions: 7 day stage, morphometric analysis, control 0%
Method: The aim of this study was to reveal the influence of omega 3 fatty acids, Vitamin E, CoQ10 and LB separately or in combination on the development and differentiation of retinal cells in culture (in vitro). Retinas of newborn (1-2 days) Wistar rats were isolated. and cultured as described in our previous paper (Int. J. Dev. Neurosc. 1998 August; 16(5):423-32). In six different combinations, the culture medium contained 10 g omega 3 fatty acids, 100 mg vitamin E, 100 mg CoQ10 and 0.05 microgram LB per 100 ml. At the 7 day stage size and differentiation of retinal pigment epithelial (RPE) cells were determined by morphometric analysis, as described in the cited work.

SMILES	Neurogenic inflammation, acute features (survival; hypotensive shock and subsequent death prevented) ([1]; 10 ml i.v. infusion 24 hours before capsaicin 50 mg/kg i.p., control 22%)	Neurogenic inflammation, chronic features ([1]; 10 ml i.v. infusion 24 hours before capsaicin, six weeks after capsaicin, control 20%)	Decrease in proinflammatory cytokine levels in immunogenic inflammation: TNF-alpha (TNF-alpha)	RPE differentiation [2]	RPE growth [2]
COC1=C(OC)C(=O)C(C/C=C(\C)CC/C=C(\C)CC/C=C(\C)CC/C=C(\C)CC/C=C(\C)CC/C=C(\C)CC/C=C(\C)CC/C=C(\C)CC/C=C(\C)CCC=C(C)C)=C(C)C1=O [CoQ10, ubiquinone 10]	22%	25%	−3%	3%	1%
CC(=O)Oc1ccccc1C(=O)O [aspirin]	–	–	−21%	–	–

— patent US20110027348A1, “COMPOSITION AND METHOD INHIBITING INFLAMMATION” (priority 2007, published 2011)
